Values after ≈ are worked out from the molar mass of the structure shown. Read-outs that look alike come from different tables or passages of the source.

Data set [1] in a line: Water solubility. It is filed as physicochemical.
Data set [2] is described as follows: Intracisternal toxicity in rats. It is filed as in vivo, Sprangue-Dawley (Carworth) rats. To be noted: aqueous solution, two day observation, Litchfield and Wilcoxon. Here is the method: (§1) Toxicity evaluations in accordance with three different techniques were carried out on aqueous solutions of the compounds of Examples I and II. The techniques utilized are described below.
Sprangue-Dawley (Carworth) rats were used. The method used was a variation of the procedure outlined by Melartin et al. (Invest. Rad. 5: 13-21, 1970). After dosing, the animals were housed individually and observed for immediate reactions and periodically for a two day observation period. The LD50 values were calculated according to the method of Litchfield and Wilcoxon (J. of Pharmac. and Exptl. Therap. 96:99-115, 1949).

Data set [3] can be described thus: Intracerebral toxicity in mice. It is filed as in vivo, Swiss Albino mice (Charles River). To be noted: aqueous solution, seven day observation, Litchfield and Wilcoxon. How it is done: as §1
Swiss Albino mice (Charles River) were used. Fixed volumes of aqueous solutions of the iodinated compounds were injected intracerebrally via a 27 gauge needle (1/4 inch in length) according to the method of Haley et al. (Br. J. of Pharmac. 12:12-15, 1957). The animals were observed immediately following injections and daily throughout a seven day observation period. The LD50 values were calculated by the method of Litchfield and Wilcoxon (J. of Pharmac. and Exptl. Therap. 96:99-113, 1949).

A short description of data set [4]: Intravenous pyelographic studies in dogs. It is filed as in vivo. Particulars: dog. Here is the method: The compounds of Examples I and II were employed in intravenous pyelographic studies carried out in dogs. At a dosage of 1000 mg.
Data set [5] can be described thus: Acute intravenous toxicity studies in mice. Particulars: intravenous (lateral tail vein), iodine concentration 28.2%, pH 7.0-7.2, approx. 1 ml./min, seven day observation, Litchfield and Wilcoxon. It is filed as in vivo, Swiss Albino mice (Charles River). Here is the method:
as §1
Swiss Albino mice (Charles River) were dosed in the lateral tail vein with aqueous solutions of the above-noted iodinated compounds having an iodine concentration of 28.2% with a pH of 7.0-7.2. The solutions were injected at the rate of approximately 1 ml./min. […] The LD50 values were calculated by the method of Litchfield and Wilcoxon (J. of Pharmac. and Exptl. Therap. 96: 99-113, 1949).

`CNC(=O)c1c(I)c(NC(=O)OC[C@@H](O)[C@H](O)[C@H](O)[C@@H](O)C=O)c(I)c(N(C)C(C)=O)c1I` [Example II, 6-[2,4,6-Triiodo-3-(N-methylacetamido)-5-(N-methylcarbamyl)carbanilyl]-D-galactose]: the solubility (commonly the dissolved amount per volume that the medium holds) in data set [1] (read-out: Water solubility) was at least 1000 mg/mL. In addition, the “LD50 Value, Intracisternal (Rats)” value in data set [2] was under 20 mg. I/kg. body wt. For the same compound, the “LD50 Value, Intracerebral (Mice)” value in data set [3] is 222 mg. I/kg. body wt. Also, the Pyelographic visualization entry is listed as “a better shadow of the kidneys was seen together with partial visualization of the ureters” in data set [4] (155 mg. I/kg., five minutes after injection) and “visualization of the kidneys” in data set [4] (155 mg. I/kg., one minute after injection). Moreover, the “LD50 Value, I.V. (Mice)” value in data set [5] is 2,300 mg. I/kg. body wt.

As to `CNC(=O)c1c(I)c(NC(=O)OCC(=O)[C@@H](O)[C@H](O)[C@@H](O)CO)c(I)c(C(=O)N(C)C)c1I` [Example I, 1-[N-(2,4,6-triiodo-3-N,N-dimethylcarbamyl-5-N-methylcarbamyl)carbanilyl]-L-sorbose], in data set [1] (after standing for one month), the concentration in solution (solubility at 730 h) came to 200 mg/mL (≈ 248 mM). Also, the solubility in data set [1] (initial determination, read-out: Water solubility (initially)) is 1000 mg/mL (≈ 1240 mM). In addition, the “LD50 Value, Intracisternal (Rats)” value in data set [2] came out at 13 mg. I/kg. body wt. For the same compound, the “LD50 Value, Intracerebral (Mice)” value in data set [3] is 1,450 mg. I/kg. body wt. In data set [4] (1000 mg. I/kg., five minutes after injection), the Pyelographic visualization entry is “very good contrast of the kidneys, collecting pelvises and urinary bladder”. For the same compound, in data set [5], the “LD50 Value, I.V. (Mice)” value is reported as 3,027 mg. I/kg. body wt.

Source of the values: patent US4230845A, “Polyhydroxy-alkyl-3,5-disubstituted-2,4,6-triiodocarbanilates” (Mallinckrodt, Inc., priority 1978, dated 1980).
